The record followed here is patent publication US11746087B1, “C4-carboxylic acid-substituted tryptamine derivatives and methods of using” (priority 2022, dated 2023).

One series deals with T1, 5-HT1A receptor (Homo sapiens, UniProt P08908).
T1 construct: host or cells: CHO-K1 (co-expressing Ga15)
T1 sequence (P08908 1-422): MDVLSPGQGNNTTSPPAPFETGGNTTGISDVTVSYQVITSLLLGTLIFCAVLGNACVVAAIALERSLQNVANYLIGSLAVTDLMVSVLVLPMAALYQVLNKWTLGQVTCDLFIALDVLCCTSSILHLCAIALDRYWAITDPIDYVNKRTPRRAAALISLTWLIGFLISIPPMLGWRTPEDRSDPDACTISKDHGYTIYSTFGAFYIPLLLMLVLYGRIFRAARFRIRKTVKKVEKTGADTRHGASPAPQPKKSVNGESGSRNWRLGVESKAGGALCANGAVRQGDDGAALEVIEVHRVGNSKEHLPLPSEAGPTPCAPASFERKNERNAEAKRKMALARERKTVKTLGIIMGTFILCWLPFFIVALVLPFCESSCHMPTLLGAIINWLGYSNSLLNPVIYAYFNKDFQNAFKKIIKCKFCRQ
In words: cAMP-Glo assay in +5-HT1A vs −5-HT1A CHO-K1 cells. Format: cell-based. The settings on record: for 5-HT1A receptor modulation, +5-HT1A vs −5-HT1A cultures: cAMP assay with 4 mM forskolin; for cAMP levels in +5-HT1A cells with increasing ligand: cells stimulated with 4 mM forskolin, compared with −5-HT1A cells. (In general: Cyclic AMP is a second messenger, typically raised through Gs and lowered through Gi signalling.)

Series [1] deals with T2, 5-HT2A receptor (Mus musculus, UniProt P35363).
T2 construct: 8-week old C57BL/6-Elite male and female mice were obtained from Charles River; tissue Charles River; host or cells: living C57BL/6-Elite mice (neuronal receptor, in vivo)
T2 sequence (P35363 whole entry): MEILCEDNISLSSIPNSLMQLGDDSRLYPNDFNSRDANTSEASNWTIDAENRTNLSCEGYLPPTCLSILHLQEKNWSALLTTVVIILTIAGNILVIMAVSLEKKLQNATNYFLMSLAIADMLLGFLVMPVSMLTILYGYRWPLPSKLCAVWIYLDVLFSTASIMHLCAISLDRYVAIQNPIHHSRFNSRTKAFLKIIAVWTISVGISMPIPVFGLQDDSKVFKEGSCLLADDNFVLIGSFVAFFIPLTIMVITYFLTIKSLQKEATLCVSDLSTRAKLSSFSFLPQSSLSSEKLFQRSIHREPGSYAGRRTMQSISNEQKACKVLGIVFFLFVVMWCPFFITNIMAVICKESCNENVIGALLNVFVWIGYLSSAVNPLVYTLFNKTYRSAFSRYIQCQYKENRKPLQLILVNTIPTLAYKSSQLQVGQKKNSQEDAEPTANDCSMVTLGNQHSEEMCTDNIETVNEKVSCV
The series can be described thus: Drug-induced Head Twitch Response (HTR). Type of series: in vivo. The settings on record: C57BL/6 mice; 1 mg/kg i.p.; 15-to-30-minute window after administration.

Series [2] deals with 5-HT2A receptor (Homo sapiens, UniProt P28223). In words: [3H]ketanserin competition binding assay (SPA). The settings on record: 1 nM [3H]ketanserin; control ligands, FIG. 3E, 3F.
5-HT2A receptor (Homo sapiens, UniProt P28223), sequence (P28223 whole entry): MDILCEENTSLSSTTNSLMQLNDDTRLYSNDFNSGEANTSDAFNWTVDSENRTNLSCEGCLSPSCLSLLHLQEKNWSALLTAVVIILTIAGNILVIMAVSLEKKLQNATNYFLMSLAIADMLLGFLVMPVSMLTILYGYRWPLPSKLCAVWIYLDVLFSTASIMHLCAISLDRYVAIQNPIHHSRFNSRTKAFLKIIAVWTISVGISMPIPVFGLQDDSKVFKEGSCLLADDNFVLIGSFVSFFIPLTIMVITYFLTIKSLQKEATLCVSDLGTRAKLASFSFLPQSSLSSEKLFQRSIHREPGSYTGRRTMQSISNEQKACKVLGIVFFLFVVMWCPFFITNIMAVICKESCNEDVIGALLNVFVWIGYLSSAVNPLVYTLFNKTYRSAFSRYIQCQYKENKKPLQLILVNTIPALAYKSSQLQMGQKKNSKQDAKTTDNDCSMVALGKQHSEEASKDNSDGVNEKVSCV
The nature of series [3]: Stability / psilocin release in enzyme-free control buffer. Type of series: in vitro ADME. The settings on record: enzyme-free control buffer pH 7.4, 37° C., 2 hours. The source says:
(§1) A fundamental evaluation in drug development is the assessment of absorption, distribution, metabolism, excretion, and pharmacokinetics (ADME/PK) (Eddershaw et al., 2000, Drug Discovery Today 5(9): 409-414). […] Drug stability upon exposure to human liver microsomes and liver S9 cellular fractions is a common in vitro assay to approximate in vivo, liver-based drug metabolism (Richardson et al., 2016 Drug Metabolism Letters 10:83-90). First-pass metabolism is also often approximated in vitro using intestinal microsome and cellular S9 fractions (Hatley et al., 2017, Biopharmaceuticals & Drug Disposition, 38(2):155-160). […] Supernatants were analyzed for the presence of candidate prodrugs (parent molecule) and psilocin (the predicted metabolite) using Orbitrap LC-MS (Thermo Scientific) using previously described methods (Menéndez-Perdomo et al., 2021, J Mass Spectrom, 56: e4683). […] Assay concentrations (μM) of both parent ‘prodrug’ molecule and psilocin metabolite, as quantified through LC-MS using routine standard curve procedures, were plotted as functions of assay time (minutes). The metabolism rate (T1/2) was determined from the metabolism curve plot using the one phase decay feature of GraphPad PRISM software (Version 9.2.0). The quantity of parent prodrug at time zero was set as 100%. […]

A short description of series [4]: Metabolic stability / psilocin release in human liver S9. Type of series: in vitro ADME. The settings on record: 400 μg/ml HLS9, NADPH, 37° C.
Text: as §1

The nature of series [5]: Metabolic stability / psilocin release in human liver microsomes. Type of series: in vitro ADME. The settings on record: 400 μg/ml HLM, NADPH, 37° C.
Text: as §1
On the technique in general: Liver microsomes are a subcellular fraction often used to study metabolism.

The nature of series [6]: Mouse PK study (IV and PO), plasma parent compound and psilocin by LC-MS/MS. Type of series: in vivo. The settings on record: mouse; for Plasma concentration of psilocybin: psilocybin 1 mg/kg i.v. The source says:
Briefly, the procedure was as follows. […] 19, 2022.

In the case of `COCCOCCOCC(=O)Oc1cccc2[nH]cc(CCN(C)C)c12` [C(III)], on 5-HT1A receptor, the “5-HT1A receptor modulation, +5-HT1A vs −5-HT1A cultures” value is recorded as “significant receptor modulation”. Further, the “Head Twitch Response (HTR) incidence relative to vehicle” value on 5-HT2A receptor [1] is recorded as “Elevated incidences of HTR”.

On to `CN(C)CCc1c[nH]c2cccc(OC(=O)c3cccc(C(=O)Oc4cccc5[nH]cc(CCN(C)C)c45)c3)c12` [C(VII)], for which the “5-HT1A receptor modulation, +5-HT1A vs −5-HT1A cultures” value at 5-HT1A receptor was “no significant receptor modulation”. Moreover, the “Head Twitch Response (HTR) incidence relative to vehicle” value on 5-HT2A receptor [1] is reported as “Elevated incidences of HTR”.

In the case of `COC(=O)c1cccc(C(=O)Oc2cccc3[nH]cc(CCN(C)C)c23)c1` [C(XLIII)], the “5-HT1A receptor modulation, +5-HT1A vs −5-HT1A cultures” value at 5-HT1A receptor was “receptor modulation at higher ligand concentrations”.

Take `CN(C)CCc1c[nH]c2cccc(O)c12` [psilocin, reference compound]: on 5-HT1A receptor, the “cAMP levels in +5-HT1A cells with increasing ligand” value is reported as “reduction in cAMP levels”. In addition, the “competition binding vs [3H]ketanserin at 5-HT2A receptor” value on 5-HT2A receptor [2] is “binding”.

In the case of `CN(C)CCc1c[nH]c2cccc(OP(=O)(O)O)c12` [psilocybin, reference compound], the “stability in assay buffer” value in series [3] is reported as “stability of psilocybin was confirmed”. In addition, the “stability / conversion to psilocin in liver fractions (HLS9)” value in series [4] is “stable in liver fractions with no conversion to psilocin”. Besides, the “stability / conversion to psilocin in liver fractions (HLM)” value in series [5] was “stable in liver fractions with no conversion to psilocin”. The “detectability of parent compound in plasma, i.v. dosing” value in series [6] (1 mg/kg i.v.) is recorded as “only detectable in i.v. administered animals”. Further, the “detectability of parent compound in plasma, oral dosing” value in series [6] (oral, any dose (1, 3, 10 mg/kg)) was “not detectable”. The “Plasma concentration of psilocybin” value in series [6] (2 h), in series [6] (4 h) and in series [6] (6 h) was “No Peak” in each case. The “Plasma concentration of psilocin” value in series [6] (psilocybin 1.56 mg/kg oral (nominal 1 mg/kg), 24 h) is listed as “BLQ”.

Consider `NCCc1c[nH]c2ccc(O)cc12` [serotonin, reference compound], for which the “cAMP levels in +5-HT1A cells with increasing ligand” value on 5-HT1A receptor is recorded as “reduction in cAMP levels”.

`N[C@@H](Cc1c[nH]c2ccccc12)C(=O)O` [tryptophan, reference compound]: on 5-HT1A receptor, the “cAMP levels in +5-HT1A cells with increasing ligand” value is listed as “no reduction in cellular cAMP levels”. Moreover, the “competition binding vs [3H]ketanserin at 5-HT2A receptor” value at 5-HT2A receptor [2] is “no binding”.
